Columns and labels:
HepG2 [1] = experiment: Growth inhibition of human HepG2 cells at 10 uM after 72 hrs by MTT assay; format: functional; settings: HepG2, 72 h, read-out: GI
MDA-MB-453 [2] = experiment: Growth inhibition of human MDA-MB-453 cells at 10 uM after 72 hrs by MTT assay; format: functional; settings: MDA-MB-453, 72 h, read-out: GI
SW480 [3] = experiment: Growth inhibition of human SW480 cells at 10 uM after 72 hrs by MTT assay; format: functional; settings: SW480, 72 h, read-out: GI
A-375 [4] = experiment: Growth inhibition of human A375 cells at 10 uM after 72 hrs by MTT assay; format: functional; settings: A-375, 72 h, read-out: GI
NCI-H522 [5] = experiment: Growth inhibition of human NCI-H522 cells at 10 uM after 72 hrs by MTT assay; format: functional; settings: NCI-H522, 72 h, read-out: GI
MCF7 [6] = experiment: Growth inhibition of human MCF7 cells at 10 uM after 72 hrs by MTT assay; format: functional; settings: MCF7, 72 h, read-out: GI
HepG2 [7] = experiment: Cytotoxicity against human HepG2 cells assessed as reduction in cell viability after 72 hrs by MTT assay; format: functional, cell-based; settings: HepG2, 72 h
MDA-MB-453 [8] = experiment: Cytotoxicity against human MDA-MB-453 cells assessed as reduction in cell viability after 72 hrs by MTT assay; format: functional, cell-based; settings: MDA-MB-453, 72 h
A-375 [9] = experiment: Cytotoxicity against human A375 cells assessed as reduction in cell viability after 72 hrs by MTT assay; format: functional, cell-based; settings: A-375, 72 h
MCF7 [10] = experiment: Cytotoxicity against human MCF7 cells assessed as reduction in cell viability after 72 hrs by MTT assay; format: functional, cell-based; settings: MCF7, 72 h
[11] = biological target: Serine/threonine-protein kinase B-raf (Homo sapiens, UniProt P15056); experiment: Inhibition of BRAF (unknown origin) incubated for 15 mins by fluorescence based assay
[12] = biological target: Vascular endothelial growth factor receptor 2 (Homo sapiens, UniProt P35968); experiment: Inhibition of human recombinant VEGFR2 incubated for 1 hr using [gamma-32P]ATP by top count assay
A-375 [13] = experiment: Antitumor activity against human A375 cells xenografted in nude Ncr mouse assessed as reduction in tumor growth at 50 mg/kg, ig dosed once daily for 23 days; format: functional; settings: A-375, po, 552 h, route intragastric, read-out: TGI
Mus musculus [14] = experiment: Toxicity in human A375 cells xenografted nude Ncr mouse assessed as body weight changes at 50 mg/kg, ig dosed once daily for 23 days; format: organism-based, A-375; parameters: dose 50 mg/kg, route intragastric; settings: in vivo, po, 552 h
Mus musculus [15] = experiment: Toxicity in human A375 cells xenografted nude Ncr mouse assessed as induction of adverse events at 50 mg/kg, ig dosed once daily for 23 days; format: organism-based, A-375; parameters: dose 50 mg/kg, route intragastric; settings: in vivo, po, 552 h
SW480 [16] = experiment: Cytotoxicity against human SW480 cells assessed as reduction in cell viability after 72 hrs by MTT assay; format: functional, cell-based; settings: SW480, 72 h
NCI-H522 [17] = experiment: Cytotoxicity against human NCI-H522 cells assessed as reduction in cell viability after 72 hrs by MTT assay; format: functional, cell-based; settings: NCI-H522, 72 h

Vascular endothelial growth factor receptor 2, sequence (P35968 whole entry): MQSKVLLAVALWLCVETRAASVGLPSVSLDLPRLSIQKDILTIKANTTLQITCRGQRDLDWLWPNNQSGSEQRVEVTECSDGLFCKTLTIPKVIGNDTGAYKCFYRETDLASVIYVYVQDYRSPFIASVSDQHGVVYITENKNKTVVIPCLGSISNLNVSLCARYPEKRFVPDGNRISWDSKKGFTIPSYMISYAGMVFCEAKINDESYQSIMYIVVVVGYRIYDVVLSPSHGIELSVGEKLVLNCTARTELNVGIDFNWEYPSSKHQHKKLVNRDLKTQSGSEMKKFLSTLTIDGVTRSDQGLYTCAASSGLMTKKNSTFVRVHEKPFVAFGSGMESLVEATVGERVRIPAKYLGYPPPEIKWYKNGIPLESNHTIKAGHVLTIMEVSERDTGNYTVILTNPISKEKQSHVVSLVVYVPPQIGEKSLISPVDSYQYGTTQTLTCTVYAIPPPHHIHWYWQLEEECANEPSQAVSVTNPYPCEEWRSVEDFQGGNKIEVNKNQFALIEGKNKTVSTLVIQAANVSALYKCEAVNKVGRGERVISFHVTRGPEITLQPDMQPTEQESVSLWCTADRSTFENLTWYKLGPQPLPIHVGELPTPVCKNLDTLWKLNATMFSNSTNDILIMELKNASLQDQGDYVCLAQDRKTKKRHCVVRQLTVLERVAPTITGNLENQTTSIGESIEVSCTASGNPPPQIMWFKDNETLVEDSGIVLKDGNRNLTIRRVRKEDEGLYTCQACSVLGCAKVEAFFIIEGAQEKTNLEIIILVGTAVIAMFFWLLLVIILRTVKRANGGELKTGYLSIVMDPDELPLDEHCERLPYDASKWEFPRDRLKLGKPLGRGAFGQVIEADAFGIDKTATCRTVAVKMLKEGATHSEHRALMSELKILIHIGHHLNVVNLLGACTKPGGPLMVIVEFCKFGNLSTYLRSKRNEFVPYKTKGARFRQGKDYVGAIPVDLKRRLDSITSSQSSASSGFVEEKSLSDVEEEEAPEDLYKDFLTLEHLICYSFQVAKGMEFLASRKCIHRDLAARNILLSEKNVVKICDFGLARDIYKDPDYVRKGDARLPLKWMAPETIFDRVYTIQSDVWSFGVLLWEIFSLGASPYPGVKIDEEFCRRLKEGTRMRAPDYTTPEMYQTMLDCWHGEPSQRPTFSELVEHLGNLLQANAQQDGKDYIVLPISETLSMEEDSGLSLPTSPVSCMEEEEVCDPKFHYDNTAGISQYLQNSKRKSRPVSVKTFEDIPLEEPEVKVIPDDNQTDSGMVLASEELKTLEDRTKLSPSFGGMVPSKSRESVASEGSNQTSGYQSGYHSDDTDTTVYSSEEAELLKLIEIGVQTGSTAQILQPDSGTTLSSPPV
Serine/threonine-protein kinase B-raf, sequence (P15056 whole entry): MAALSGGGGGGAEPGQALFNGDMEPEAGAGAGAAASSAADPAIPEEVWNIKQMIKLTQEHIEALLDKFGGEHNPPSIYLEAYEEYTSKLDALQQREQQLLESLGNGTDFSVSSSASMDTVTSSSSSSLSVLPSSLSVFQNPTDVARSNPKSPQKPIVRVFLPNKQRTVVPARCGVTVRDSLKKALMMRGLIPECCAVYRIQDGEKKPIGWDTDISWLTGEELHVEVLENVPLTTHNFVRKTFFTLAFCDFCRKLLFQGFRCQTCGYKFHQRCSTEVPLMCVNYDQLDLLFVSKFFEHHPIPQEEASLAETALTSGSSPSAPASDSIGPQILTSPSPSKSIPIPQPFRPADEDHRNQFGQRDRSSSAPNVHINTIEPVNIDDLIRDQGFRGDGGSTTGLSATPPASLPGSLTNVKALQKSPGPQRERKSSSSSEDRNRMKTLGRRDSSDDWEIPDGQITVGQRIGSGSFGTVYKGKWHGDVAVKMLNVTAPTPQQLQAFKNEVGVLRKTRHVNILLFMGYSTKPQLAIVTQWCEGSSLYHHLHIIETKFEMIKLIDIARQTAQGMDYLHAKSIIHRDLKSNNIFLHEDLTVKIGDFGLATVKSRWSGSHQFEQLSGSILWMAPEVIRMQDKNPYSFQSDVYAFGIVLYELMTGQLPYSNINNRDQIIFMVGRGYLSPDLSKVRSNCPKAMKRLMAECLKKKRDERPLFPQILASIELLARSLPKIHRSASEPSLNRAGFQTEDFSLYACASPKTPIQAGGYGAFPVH

Row | IC50 [11] | IC50 [12] | SMILES | inhibition of growth at 10 µM (HepG2 [1]) | inhibition of growth at 10 µM (MDA-MB-453 [2]) | inhibition of growth at 10 µM (SW480 [3]) | inhibition of growth at 10 µM (A-375 [4]) | inhibition of growth at 10 µM (NCI-H522 [5]) | inhibition of growth at 10 µM (MCF7 [6]) | IC50 (HepG2 [7]) | IC50 (MDA-MB-453 [8]) | IC50 (A-375 [9]) | IC50 (MCF7 [10]) | inhibition in vivo at 50 mg/kg (A-375 [13]) | Activity (Mus musculus [14]) | Activity (Mus musculus [15]) | IC50 (SW480 [16]) | IC50 (NCI-H522 [17])
1 | 0.65 µM | 18.6 µM | O=C(Nc1ccc(Cl)c(C(=O)Nc2ccc(-c3ncc[nH]3)nc2)c1)c1ccc(Cl)c(C(F)(F)F)c1 | 54.2% | 49.3% | 38.8% | 62.6% | -3.2% | 41.5% | 13.8 µM | 8.35 µM | 4.26 µM | 15.3 µM | 35.7% | Non-toxic | Non-toxic |  | 
2 |  |  | Cc1cc(C(=O)Nc2ccc(Cl)c(C(=O)Nc3ccc(-c4ncc[nH]4)nc3)c2)ccc1Cl | 52.8% | 51.1% | 65.7% | 43.9% | 66.7% | 43.7% | 11.5 µM | 8.76 µM | 12.6 µM | 16.3 µM |  |  |  | 3.57 µM | 2.09 µM
3 | 0.531 µM | 23.4 µM | O=C(Nc1ccc(Cl)c(C(F)(F)F)c1)c1ccc(Cl)c(C(=O)Nc2ccc(-c3ncc[nH]3)nc2)c1 | 63.4% | 52.9% | 33.4% | 64.4% | 0.2% | 31.3% | 3.21 µM | 7.96 µM | 2.93 µM |  | 42.5% | Non-toxic | Non-toxic |  | 

Reference: ChEMBL document CHEMBL3392978 (Eur J Med Chem, 2015)
